“And” between values parts separate entries of the source, which are not always exact repeats. Equal values may be shown once.
Legend:
hCB1R = biological target: T1, hCB1R (Homo sapiens, UniProt P21554); test: [3H]CP55,940 radioligand displacement, CHO-K1 hCB1R membranes; format: binding; details: % [3H]CP55,940 bound, 1 nM radioligand, 2 h
T1 construct: expressed in transfected cells; host or cells: CHO-K1 (ATCC CCL-61) stably expressing hCB1R; membranes
Description: (§1) CHO-K1 cells were thawed, diluted in Tris buffer (50 mM Tris [pH 7.4]) and homogenized in a 1 ml hand-held homogenizer. hCB1R and hCB2R CHO-K1 cell membranes were collected by cavitation in a pressure cell, and sedimented by ultracentrifugation. Pellets were resuspended in TME buffer (50 mM Tris, 5 mM MgCl2, 1 mM EDTA [pH 7.4]), and protein concentration was measured via the Bradford method according to the manufacturer’s directions (Bio-Rad Laboratories, Mississauga, ON). […] Radioligand binding began with the addition of CHO-K1 cell membranes (25 µg protein per sample). Assays were performed for 120 min at 37°C and stopped by the addition of ice-cold Tris binding buffer (pH 7.4), followed by vacuum filtration using a 24-well sampling manifold (Brandel Cell Harvester; Brandel Inc., Gaithersburg, MD, United States ). Brandel GF/B filter paper was soaked with wash buffer at 4 °C for at least 24 h. Each filter paper was washed 6 times with a 1.2 ml aliquot of Tris-binding buffer (pH 7.4), then air-dried and submerged in 5 ml of scintillation fluid (Ultima Gold XR, PerkinElmer). Liquid scintillation spectrometry was used to quantify radioactivity.

hCB2R [1] = biological target: T2, hCB2R (Homo sapiens, UniProt P34972); test: DiscoveRx HitHunter inhibition of FSK-stimulated cAMP accumulation; format: cell-based
T2 sequence (P34972 whole entry): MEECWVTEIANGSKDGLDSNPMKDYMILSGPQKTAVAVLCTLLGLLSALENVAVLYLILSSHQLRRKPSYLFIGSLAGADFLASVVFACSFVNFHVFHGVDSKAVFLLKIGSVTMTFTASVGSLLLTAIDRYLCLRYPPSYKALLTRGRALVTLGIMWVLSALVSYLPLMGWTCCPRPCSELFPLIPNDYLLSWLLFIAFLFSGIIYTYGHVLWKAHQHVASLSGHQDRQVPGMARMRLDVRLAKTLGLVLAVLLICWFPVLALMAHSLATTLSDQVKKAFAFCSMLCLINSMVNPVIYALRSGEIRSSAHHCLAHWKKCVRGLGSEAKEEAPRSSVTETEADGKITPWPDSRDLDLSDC
Description: Inhibition of FSK-stimulated cAMP accumulation was measured using the DiscoveRx HitHunter assay.

hCB2R [2] = biological target: T2, hCB2R; test: [3H]CP55,940 radioligand displacement, CHO-K1 hCB2R membranes; format: binding; details: for hCB2R E min (% CP55,940) ± S.E.M: % [3H]CP55,940 bound, 1 nM radioligand, 2 h; for Effect on [3H]CP55,940 bound to hCB2R: [3H]CP55,940 displacement
Description: as §1, with “Assays were performed for 120 min at 37°C and stopped by the addition of ice-cold Tris binding buffer (pH 7.4), followed by vacuum filtration using a 24-well sampling manifold (Brandel Cell Harvester; Brandel Inc., Gaithersburg, MD, United States ).” left out

hCB2R [3] = biological target: T2, hCB2R; test: DiscoveRx PathHunter βarrestin2 recruitment; format: cell-based
Description: βarrestin2 recruitment was quantified using the DiscoveRx PathHunter® assay. […] Detection solution was added to cells (DiscoveRx), and cells were incubated for 60 min at room temperature. Chemiluminescence was measured on a Cytation5 plate reader (top read, gain 200, integration time 10,000 ms).

[4] = tested on: human microglial cells (HMC3); test: IL-6 and IL-10 release (ELISA) in LPS/TNFα-stimulated HMC3 cells; format: cell-based
Description: The concentrations of pro-inflammatory (IL-6) and anti-inflammatory (IL-10) interleukins were determined by performing specific ELISA assays (MyBioSource, San Diego, CA, United States ) on collected culture media. Human microglial cells (HMC3) were exposed to pretreatment with test compounds for 1 h followed by stimulation with LPS (10 μg/ml)/TNFα (50 ng/ml) for 24 h. In competition experiments, the CB2R antagonist (SR144528, 1 μM) or the CB2R positive allosteric modulator (EC21a 1 or 10 μM) were administered 15 min before agonist administration.

[5] = CHO-K1 hCB2R, 10 µM FSK, 90 min
[6] = CHO-K1 hCB2R, 10 µM FSK, 90 min, read-out: Inhibition of cAMP EC50 (95% C.I.)
[7] = CHO-K1 hCB2R, 90 min, read-out: βarrestin2 recruitment EC50 (95% C.I.)

T1 sequence (P21554 whole entry): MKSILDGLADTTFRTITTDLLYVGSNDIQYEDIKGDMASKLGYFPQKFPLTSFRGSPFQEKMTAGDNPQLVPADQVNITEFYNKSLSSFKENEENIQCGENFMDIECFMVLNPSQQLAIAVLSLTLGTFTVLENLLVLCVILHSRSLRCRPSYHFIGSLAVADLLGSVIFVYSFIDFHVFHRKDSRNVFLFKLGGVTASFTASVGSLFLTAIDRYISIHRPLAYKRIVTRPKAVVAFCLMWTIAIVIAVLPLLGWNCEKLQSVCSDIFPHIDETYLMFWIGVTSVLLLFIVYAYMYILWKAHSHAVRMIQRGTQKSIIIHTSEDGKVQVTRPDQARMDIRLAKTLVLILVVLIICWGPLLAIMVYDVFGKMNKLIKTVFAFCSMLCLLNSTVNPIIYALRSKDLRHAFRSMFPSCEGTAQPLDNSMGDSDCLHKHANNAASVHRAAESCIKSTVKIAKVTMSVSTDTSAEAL

Row | SMILES | hCB1R E min (% CP55,940) ± S.E.M (hCB1R) | Response in inhibition of FSK-stimulated cAMP accumulation (hCB2R [1]; CHO-K1 hCB2R) | Inhibition of cAMP E max (% CP55,940) ± S.E.M (hCB2R [1]; [5]) | EC50 (hCB2R [1]; Inhibition of cAMP EC50 (95% C.I.), CHO-K1 hCB2R, 10 µM FSK, 90 min) [nM] | EC50 (hCB2R [1]; Inhibition of cAMP EC50 (95% C.I.), co-administration, EC21a concentration-response in the presence of 10 nM LV62, 10 µM FSK, 90 min) [nM] | IC50 (hCB2R [2]) [nM] | hCB2R E min (% CP55,940) ± S.E.M (hCB2R [2]) | Effect on [3H]CP55,940 bound to hCB2R (hCB2R [2]) | EC50 (hCB2R [3]) [µM] | Response in βarrestin2 recruitment (hCB2R [3]; CHO-K1 hCB2R) | βarrestin2 recruitment E max (% CP55,940) ± S.E.M (hCB2R [3]; CHO-K1 hCB2R, 90 min) | Effect of co-administered EC21a on JR64a anti-inflammatory activity (IL-6 release) ([4]; EC21a at equimolar or higher doses, LPS/TNFα) | Effect of equimolar EC21a on LV62 anti-inflammatory activity ([4]; LV62 1 or 10 μM with EC21a 1:1, LPS/TNFα 24 h) | melting point | EC50 (hCB2R [1]; [6]) [nM] | EC50 (hCB2R [3]; [7]) [µM] | EC50 (hCB2R [1]) [nM]
1 | Cc1c(Br)cn(Cc2ccc(F)cc2)c(=O)c1NC(=O)C1CCCCCC1 [EC21a, reference compound] | 103 ± 2.5 % CP55,940 | no response was detected | 2.5 ± 0.53 % CP55,940 | > 10000 | 4.3 | 36 | 115 ± 7.9 % CP55,940 | increased | > 10 | no response was detected | 1.4 ± 0.96 % CP55,940 | no effects on JR64a anti-inflammatory activity | enhanced LV62 anti-inflammatory activity | – | – | – | –
2 | Cc1c(Br)cn(CCCc2cn(CCCCC(=O)NC3CCC(NC(=O)c4cc5cccnc5n(Cc5ccc(F)cc5)c4=O)CC3)nn2)c(=O)c1NC(=O)C1CCCCCC1 (stereo not shown) [JR14a, N-(4-(5-(4-(3-(5-bromo-3-(cycloheptanecarboxamido)-4-methyl-2-oxopyridin-1(2H)-yl)propyl)-1H-1,2,3-triazol-1-yl)pentanamido)cyclohexyl)-1-(4-fluorobenzyl)-2-oxo-1,2-dihydro-1,8-naphthyridine-3-carboxamide] | 98 ± 2.5 % CP55,940 | modest partial agonist activity | 41 ± 5.7 % CP55,940 | – | – | 1.8 | 59 ± 12.3 % CP55,940 | – | – | – | 39 ± 0.93 % CP55,940 | – | – | 108 °C (dec.) | 150 | 0.025 | –
3 | Cc1c(Br)cn(Cc2cn(CCCCC(=O)NC3CCC(NC(=O)c4cc5cccnc5n(Cc5ccc(F)cc5)c4=O)CC3)nn2)c(=O)c1NC(=O)C1CCCCCC1 (stereo not shown) [JR16a, N-(4-(5-(4-((5-bromo-3-(cycloheptanecarboxamido)-4-methyl-2-oxopyridin-1(2H)-yl)methyl)-1H-1,2,3-triazol-1-yl)pentanamido)cyclohexyl)-1-(4-fluorobenzyl)-2-oxo-1,2-dihydro-1,8-naphthyridine-3-carboxamide] | – | – | 36 ± 8.6 % CP55,940 | – | – | – | – | – | – | – | 27 ± 4.2 % CP55,940 | – | – | 113 °C (dec.) | 350 | – | –
4 | Cc1c(Br)cn(CCCc2cn(CCCCCn3c(=O)c(C(=O)NC4CCC(C)CC4)cc4cccnc43)nn2)c(=O)c1NC(=O)C1CCCCCC1 (stereo not shown) [JR22a, 1-(5-(4-(3-(5-bromo-3-(cycloheptanecarboxamido)-4-methyl-2-oxopyridin-1(2H)-yl)propyl)-1H-1,2,3-triazol-1-yl)pentyl)-N-(4-methylcyclohexyl)-2-oxo-1,2-dihydro-1,8-naphthyridine-3-carboxamide] | – | – | 38 ± 5.5 % CP55,940 | – | – | – | – | – | > 10 | – | 33 ± 3.1 % CP55,940 | – | – | 114 °C (dec.) | – | – | 62
5 | Cc1c(Br)cn(Cc2cn(CCCCCn3c(=O)c(C(=O)NC4CCC(C)CC4)cc4cccnc43)nn2)c(=O)c1NC(=O)C1CCCCCC1 (stereo not shown) [JR26a, 1-(5-(4-((5-bromo-3-(cycloheptanecarboxamido)-4-methyl-2-oxopyridin-1(2H)-yl)methyl)-1H-1,2,3-triazol-1-yl)pentyl)-N-(4-methylcyclohexyl) -2-oxo-1,2-dihydro-1,8-naphthyridine-3-carboxamide] | – | – | 41 ± 5.1 % CP55,940 | – | – | – | – | – | – | – | 39 ± 6.1 % CP55,940 | – | – | 116 °C (dec.) | 110 | > 10 | –
6 | Cc1c(Br)cn(CCOCCn2c(=O)c(C(=O)NC3CCC(C)CC3)cc3cccnc32)c(=O)c1NC(=O)C1CCCCCC1 (stereo not shown) [JR58a, 1-(2-(2-(5-bromo-3-(cycloheptanecarboxamido)-4-methyl-2-oxopyridin-1(2H)-yl)ethoxy)ethyl)-N-(4-methylcyclohexyl)-2-oxo-1,2-dihydro-1,8-naphthyridine-3-carboxamide] | – | – | 45 ± 2.9 % CP55,940 | – | – | – | – | – | > 10 | – | 51 ± 2.8 % CP55,940 | – | – | 110 °C (dec.) | – | – | 270
7 | Cc1c(Br)cn(CCCCOCCCCn2c(=O)c(C(=O)NC3CCC(C)CC3)cc3cccnc32)c(=O)c1NC(=O)C1CCCCCC1 (stereo not shown) [JR60a, 1-(4-(4-(5-bromo-3-(cycloheptanecarboxamido)-4-methyl-2-oxopyridin-1(2H)-yl)butoxy)butyl)-N-(4-methylcyclohexyl)-2-oxo-1,2-dihydro-1,8-naphthyridine-3-carboxamide] | – | – | 46 ± 4.4 % CP55,940 | – | – | – | – | – | > 10 | – | 36 ± 9.2 % CP55,940 | – | – | 118 °C (dec.) | – | – | 770
8 | Cc1c(Br)cn(CCCCCn2c(=O)c(C(=O)NC3CCC(C)CC3)cc3cccnc32)c(=O)c1NC(=O)C1CCCCCC1 (stereo not shown) [JR61a, 1-(5-(5-bromo-3-(cycloheptanecarboxamido)-4-methyl-2-oxopyridin-1(2H)-yl)pentyl)-N-(4-methylcyclohexyl)-2-oxo-1,2-dihydro-1,8-naphthyridine-3-carboxamide] | – | – | 46 ± 1.7 % CP55,940 | – | – | – | – | – | > 10 | – | 34 ± 2.2 % CP55,940 | – | – | 118 °C (dec.) | – | – | 420
9 | CC1CCC(NC(=O)c2cc3cccnc3n(CCCCCO)c2=O)CC1 (stereo not shown) [LV62, reference compound] | 106 ± 3.6 % CP55,940 | – | 110 ± 8.8 % CP55,940 and 110 ± 5.3 % CP55,940 | – | – | 0.65 | 16 ± 11.9 % CP55,940 | fully displaced | – | – | 65 ± 1.4 % CP55,940 | – | – | – | – | – | 58
